Measured values as given in patent US20250099517A1, “Use of Lactobacillus reuteri Y7 strain for prevention or treatment of ocular diseases” (Taipei Medical University, priority 2023, published 2025).

Columns and labels:
[1] = system: blue light-induced retinal atrophy; assay: SD-OCT quantitative analysis of retina layers, blue light-induced macular disease model; type: in vivo, C57BL/6 mice; conditions: for RPE layer thickness compared with the BL group / ONL (outer nuclear layer) thickness compared with the BL group: Day 35, p<0.05
Description: The C57BL/6 mice, which weighed between 23 and 25 g, were divided into seven groups randomly. In each group, the six mice induced by blue light successfully were incorporated in experiments. The samples dissolved in deuterium-depleted water (DDW) were fed to mice through oral tubes once a day. The groups were named and introduced as follows: • (1) Solvent not classified group (NC): The mice were fed with 0.2 ml deuterium-depleted water (DDW) through tubes; • (2) Negative control group (Blue light (BL)): The mice were fed with 0.2 ml deuterium-depleted water (DDW) through tubes and exposed to blue light; • (3) Low-dosage Y7 probiotics group […]): The mice were fed with low-dosage Y7 probiotics (probiotic counts of 1.0×10^8 CFU/ml dissolved in 0.2 ml DDW per day) and exposed to blue light; • (4) High-dosage Y7 probiotics group […]): The mice were fed with high-dosage Y7 probiotics (probiotic counts of 1.0×10^9 CFU/ml dissolved in 0.2 ml DDW per day) and exposed to blue light; • (5) Positive control group (lutein (LU)): The mice were fed with lutein and exposed to blue light. The recommended human dosage of lutein is 30 mg. The mouse cage (48×25×20 cm) placed inside a stainless ventilated box was equipped with blue light boards as blue light sources around and above. In the experiment of animals exposed to blue light, six-week-old mice staying in the mouse cage were fed with drinking water as well as fodders and exposed to 400 Lux blue light illumination under the light-dark cycle of 12-hour light and 12-hour dark. The experiment was aimed at causing mice' late dry macular disease induced by chronic light injuries for simulating a human being's macular disease after long-term exposure to short-wavelength blue light from 3C products in daily life. The OCT image system (Phoenix Research Laboratories, San Ramon, CA) used in the experiment is constructed based on the principle of spectral-domain optical coherence tomography. In the system, the computed tomography is divided into five layers, that is, Layer 1: the distance from the Ganglion cell layer (GY7L) to the outer plexiform layer (OPL); Layer 2: outer nuclear layer (ONL); Layer 3: the distance between the inner segment (IS) and the outer segment (OS); Layer 4: the distance from IS/OS to RPE; Layer 5: the total retinal thickness from the nerve fiber layer (NFL) to the lower edge of the RPE layer. The five layers were taken for the quantitative analysis by InSight XL (Phoenix Research Laboratories, San Ramon, CA). SD-OCT was used in checking lesions after exposure to blue light such as retinal atrophy and edema on a retina structure. According to the quantitative SD-OCT analysis, changes in all layers of a retina during the experiment were clearly inspected and no lesion like atrophy and edema was detected in any group before the experiment, as show in FIG. 5. Atrophy at the outer nuclear layer (ONL) of mice in the BL group was observed on Day 35, as shown by the arrow in FIG. 3a.

[2] = system: photosensitivity of a retina; assay: scotopic electroretinography (ERG), blue light-induced macular disease model; type: in vivo, C57BL/6 mice
Description: The C57BL/6 mice, which weighed between 23 and 25 g, were divided into seven groups randomly. In each group, the six mice induced by blue light successfully were incorporated in experiments. The samples dissolved in deuterium-depleted water (DDW) were fed to mice through oral tubes once a day. The groups were named and introduced as follows: • (1) Solvent not classified group (NC): The mice were fed with 0.2 ml deuterium-depleted water (DDW) through tubes; • (2) Negative control group (Blue light (BL)): The mice were fed with 0.2 ml deuterium-depleted water (DDW) through tubes and exposed to blue light; • (3) Low-dosage Y7 probiotics group […]): The mice were fed with low-dosage Y7 probiotics (probiotic counts of 1.0×10^8 CFU/ml dissolved in 0.2 ml DDW per day) and exposed to blue light; • (4) High-dosage Y7 probiotics group […]): The mice were fed with high-dosage Y7 probiotics (probiotic counts of 1.0×10^9 CFU/ml dissolved in 0.2 ml DDW per day) and exposed to blue light; • (5) Positive control group (lutein (LU)): The mice were fed with lutein and exposed to blue light. The recommended human dosage of lutein is 30 mg. The mouse cage (48×25×20 cm) placed inside a stainless ventilated box was equipped with blue light boards as blue light sources around and above. In the experiment of animals exposed to blue light, six-week-old mice staying in the mouse cage were fed with drinking water as well as fodders and exposed to 400 Lux blue light illumination under the light-dark cycle of 12-hour light and 12-hour dark. The experiment was aimed at causing mice' late dry macular disease induced by chronic light injuries for simulating a human being's macular disease after long-term exposure to short-wavelength blue light from 3C products in daily life. The mydriatic agent, Atropine (0.125%), was distilled into mice' eyes for mydriasis in advance. Then, mice were anesthetized with Zoletil (40 mg/kg) and Xylazine (10 mg/kg) through intraperitoneal (IP); 2% Methocel gel as a lubricant was distilled into eyes of a deeply anesthetized mouse having placed on a clean bench. The ERG analysis was enabled with the electrodes installed completely. A mouse was stimulated with single excitation light for collection of ERG from which a negative a-wave and a positive b-wave were generated. For the ERG analysis, the excitation time was defined as the period from the initial time of excitation light emitted to the time of the a-wave (b-wave) peak detected; the amplitude of a-wave was defined as the amplitude difference between the background ERG value at the initial time of excitation light emitted and the ERG value of the a-wave peak; the amplitude of b-wave was defined as the amplitude difference between the ERG value of the a-wave peak and the ERG value of the b-wave peak. Any change observed in the excitation time or an amplitude referred to functions of retinal cells normal or abnormal. In electrophysiology, the a-wave denotes the healthy condition of photoreceptors at outside of a retina; the b-wave denotes the healthy condition of medial nerve cells of a retina such as bipolar cells and horizontal cells; the c-wave denotes the healthy condition of retinal pigment epithelium (RPE) on a retina. In the experiment, the scotopic electroretinography (ERG) was used in inspecting influence of exposure to blue light on photosensitivity of a mouse's retina. When light was received by a mouse's eyes, opsins and 11-cis-retinal on photoreceptor cells were combined with each other for a visual cycle such that a membrane potential difference was produced for transmission of ERG by the retinal neuron layer sequentially, that is, the electroretinographic physiological function test was conducted through recording peak potential differences generated by different nerve cells. […]

[3] = LU lutein group, ERG Day 35, p<0.05

Row | amplitude of c-waves compared with the BL group [2, 3] | amplitude of a-waves compared with the BL group ([2]; mouse, in vivo) | amplitude of a-waves compared with the LU group ([2]; mouse, in vivo) | amplitude of a-waves compared with the NC group ([2]; mouse, in vivo) | amplitude of c-waves compared with the BL group ([2]; mouse, in vivo) | Molecule | RPE layer thickness compared with the BL group ([1]; LU lutein group) | thickness of a retina after long-term exposure to blue light ([1]; lutein) | amplitude of b-waves, BL group versus treated group [2, 3] | ONL (outer nuclear layer) thickness compared with the BL group ([1]; Y7H high-dosage group) | RPE layer thickness compared with the BL group ([1]; Y7H high-dosage group) | ONL (outer nuclear layer) thickness compared with the BL group ([1]; Y7L low-dosage group) | RPE layer thickness compared with the BL group ([1]; Y7L low-dosage group) | thickness of a retina after long-term exposure to blue light ([1]; high-dosage Y7 probiotics) | thickness of a retina after long-term exposure to blue light ([1]; low-dosage Y7 probiotics) | amplitude of b-waves, BL group versus treated group ([2]; mouse, in vivo)
1 | significant difference |  |  |  |  | CC1=C[C@H](O)CC(C)(C)[C@H]1/C=C/C(C)=C/C=C/C(C)=C/C=C/C=C(C)/C=C/C=C(C)/C=C/C1=C(C)C[C@@H](O)CC1(C)C [lutein, reference compound] | significantly thicker | effectively maintained | BL group decreased significantly compared with the LU or Y7H group |  |  |  |  |  |  | 
2 |  | increased significantly | decreased significantly | decreased significantly | significant difference | Lactobacillus reuteri Y7 [Y7 probiotics] |  |  |  | significant difference | significantly thicker | significant difference | significantly thicker | effectively maintained | effectively maintained | BL group decreased significantly compared with the LU or Y7H group
